Legend:
[1] = test system: wild type (WT) yeast containing the ERG2; test: Optical sodium and potassium ion sensor monitoring of yeast cells stimulated with a HERG inhibitor (HERG compatibility screen), wild type; conditions: FIG. 6
Excerpt: (§1) The sensors of the present invention are suited to many different types of assays, or for the detection of compounds. In one exemplary application, a model cell system is used to screen for HERG compatibility. HERG (human ether-a-go-go) channels are implicated in the abnormal heart rhythms associated with Long QT Syndrome. It is believed that many compounds can block these channels and cause prolongation of the beat cycle of the heart. This abnormal rhythm can cause arrhythmia and can even lead to death. Accordingly, it is important that all drugs, regardless of therapeutic target, be screened for HERG compatibility.
(§2) Much is known genetically about yeast, and gene knock-outs are commercially available, allowing for the screening of two types of yeast: the wild type (WT) containing the ERG2, and one mutated to knock-out the ERG2 gene.
(§3) This example utilizes two cell types and two types of sensors, providing four different data signals, and the approach can be extended to an arbitrary number of sensors and cell types. Similarly, tissue can be used instead of culture.

[2] = test system: yeast mutated to knock-out the ERG2 gene; test: Optical sodium and potassium ion sensor monitoring of yeast cells stimulated with a HERG inhibitor (HERG compatibility screen), ERG2 knock-out; conditions: FIG. 6
Excerpt: as §1, §2, §3

O=C(CCCN1CCC(O)(c2ccc(Cl)cc2)CC1)c1ccc(F)cc1 [Haloperidol]
change in potassium upon stimulation of the cells ([1]; potassium sensor): a change is observed | change in sodium upon stimulation of the cells ([1]; sodium sensor): a change is observed | response in potassium upon stimulation of the cells ([2]; potassium sensor): no response | response in sodium upon stimulation of the cells ([2]; sodium sensor): no response

From patent US7910065B2, “Reaction sensing in living cells” (The Charles Stark Draper Laboratory, Inc., priority 2005, dated 2011)
